Test results reported in ChEMBL document CHEMBL1147621, “The discovery of biaryl acids and amides exhibiting antibacterial activity against Gram-positive bacteria” (2004).
Values after ≈ are worked out from the molar mass of the structure shown. One block for each compound: values may come before it. Active and inactive are the calls of the source. The rule behind the calls is not given here.

What was measured:
Enterococcus faecium [1] = test: Antibacterial activity against Enterococcus faecium F24910; format: functional
Enterococcus faecium [2] = test: Antibacterial activity against E. species. T66429; format: functional
Escherichia coli = test: Antibacterial activity against Escherichia coli H28233; format: functional, organism-based
[3] = tested on: Streptococcus sp. 'group A'; test: Antibacterial activity against Grp A Strep T32098; format: functional
Pseudomonas aeruginosa [4] = test: Antibacterial activity against Pseudomonas aeruginosa W30279; format: functional, organism-based
Pseudomonas aeruginosa [5] = test: Antibacterial activity against Pseudomonas aeruginosa W30298; format: functional, organism-based
Staphylococcus aureus [6] = test: Antibacterial activity of compound to inhibit the growth of Staphylococcus aureus 8325; format: functional
Staphylococcus aureus [7] = test: Antibacterial activity against Staphylococcus aureus W30078c; format: functional
Staphylococcus aureus [8] = test: Antibacterial activity against Staphylococcus aureus F2490; format: functional
[9] = tested on: Streptococcus sp. 'group A'; test: Antibacterial activity against Grp A Strep S54408; format: functional
Staphylococcus aureus [10] = test: Antibacterial activity against Staphylococcus aureus 8325; format: functional
Bacteria [11] = test: Antibacterial activity of compound to inhibit the growth of Gram-positive bacteria; format: functional
Bacteria [12] = test: Antibacterial activity of compound to inhibit the growth of Gram-positive bacteria; Range is 8-12 ug/mL; format: functional
Bacteria [13] = test: Antibacterial activity of compound to inhibit the growth of Gram-positive bacteria; Range is 5-11 ug/mL; format: functional

- MIC (Enterococcus faecium [1]): 20 µg/mL (≈ 47.6 µM)
- MIC (Enterococcus faecium [2]): 20 µg/mL (≈ 47.6 µM)
- MIC (Escherichia coli): inactive
- MIC [3]: 20 µg/mL (≈ 47.6 µM)
- MIC (Pseudomonas aeruginosa [4]): inactive
- MIC (Pseudomonas aeruginosa [5]): inactive
- MIC (Staphylococcus aureus [7]): 20 µg/mL (≈ 47.6 µM)
- MIC (Staphylococcus aureus [8]): 15 µg/mL (≈ 35.7 µM)
- MIC [9]: 10 µg/mL (≈ 23.8 µM)
- MIC (Staphylococcus aureus [10]): 15 µg/mL (≈ 35.7 µM)
Compound: O=C(N[C@@H](CC1CCCCC1)C(=O)O)c1ccc(Cl)c(-c2cccc(Cl)c2)c1
- IC90 (Staphylococcus aureus [6]): 8 µg/mL (≈ 19 µM)

Compound: C[C@H](NC(=O)c1ccc(Cl)c(-c2ccc(Cl)cc2)c1)C(=O)O
- IC90 (Bacteria [11]): > 50 µg/mL

Compound: O=C(N[C@@H](Cc1ccccc1)C(=O)O)c1ccc(Cl)c(-c2ccc(Cl)cc2)c1
- IC90 (Bacteria [11]): > 50 µg/mL

Compound: Cc1cc(C(=O)N[C@@H](CC2CCCCC2)C(=O)O)ccc1-c1ccc(-c2ccccc2)cc1
- IC90 (Staphylococcus aureus [6]): 2 µg/mL (≈ 4.53 µM)

- MIC (Enterococcus faecium [1]): 20 µg/mL (≈ 46.8 µM)
- MIC (Enterococcus faecium [2]): 20 µg/mL (≈ 46.8 µM)
- MIC (Escherichia coli): inactive
- MIC [3]: 20 µg/mL (≈ 46.8 µM)
- MIC (Pseudomonas aeruginosa [4]): inactive
- MIC (Pseudomonas aeruginosa [5]): inactive
- MIC (Staphylococcus aureus [7]): 20 µg/mL (≈ 46.8 µM)
- MIC (Staphylococcus aureus [8]): 20 µg/mL (≈ 46.8 µM)
- MIC [9]: 10 µg/mL (≈ 23.4 µM)
- MIC (Staphylococcus aureus [10]): 20 µg/mL (≈ 46.8 µM)
Compound: O=C(N[C@@H](CC1CCCCC1)C(=O)O)c1cccc(-c2ccc(-c3ccccc3)cc2)c1
- IC90 (Staphylococcus aureus [6]): 4 µg/mL (≈ 9.36 µM)

Compound: O=C(O)[C@@H]1CCCCN1C(=O)c1ccc(Cl)c(-c2ccc(-c3ccccc3)cc2)c1
- IC90 (Bacteria [11]): 25 µg/mL (≈ 59.5 µM)

Compound: O=C(NC(C(=O)O)c1ccccc1)c1ccc(Cl)c(-c2ccc(-c3ccccc3)cc2)c1 (configuration not stated)
- IC90 (Bacteria [11]): 10 µg/mL (≈ 22.6 µM)

- MIC (Enterococcus faecium [1]): > 20 µg/mL
- MIC (Enterococcus faecium [2]): 20 µg/mL (≈ 47.6 µM)
- MIC (Escherichia coli): inactive
- MIC [3]: 20 µg/mL (≈ 47.6 µM)
- MIC (Pseudomonas aeruginosa [4]): inactive
- MIC (Pseudomonas aeruginosa [5]): inactive
- MIC (Staphylococcus aureus [7]): 20 µg/mL (≈ 47.6 µM)
- MIC (Staphylococcus aureus [8]): 20 µg/mL (≈ 47.6 µM)
- MIC [9]: 10 µg/mL (≈ 23.8 µM)
- MIC (Staphylococcus aureus [10]): 20 µg/mL (≈ 47.6 µM)
Compound: O=C(N[C@@H](CC1CCCCC1)C(=O)O)c1ccc(Cl)c(-c2ccc(Cl)cc2)c1
- IC90 (Staphylococcus aureus [6]): 10 µg/mL (≈ 23.8 µM)

Compound: NC(=O)[C@H](CC1CCCCC1)NC(=O)c1ccc(Cl)c(-c2ccc(Cl)cc2)c1
- IC90 (Bacteria [12]): 12 µg/mL (≈ 28.6 µM)

Compound: COC(=O)[C@H](CC1CCCCC1)NC(=O)c1ccc(Cl)c(-c2ccc(Cl)cc2)c1
- IC90 (Bacteria [11]): > 50 µg/mL

Compound: Cc1ccc(C(=O)N[C@@H](CC2CCCCC2)C(=O)O)cc1-c1ccc(-c2ccccc2)cc1
- IC90 (Staphylococcus aureus [6]): 3 µg/mL (≈ 6.79 µM)

Compound: O=C(N[C@@H](CC1CCCC1)C(=O)O)c1ccc(Cl)c(-c2ccc(Cl)cc2)c1
- IC90 (Bacteria [11]): 18 µg/mL (≈ 44.3 µM)

Compound: O=C(N[C@@H](CC1CCNCC1)C(=O)O)c1ccc(Cl)c(-c2ccc(Cl)cc2)c1
- IC90 (Bacteria [11]): > 50 µg/mL

Compound: NC(=O)c1ccc(Cl)c(-c2ccc(-c3ccccc3)cc2)c1
- IC90 (Bacteria [11]): > 50 µg/mL

Compound: O=C(O)c1ccc(Cl)c(-c2ccc(Cl)cc2)c1
- IC90 (Bacteria [11]): > 50 µg/mL

Compound: NC(=O)c1ccc(Cl)c(-c2ccc(Cl)cc2)c1
- IC90 (Bacteria [11]): > 50 µg/mL

Compound: O=C(N[C@H](CC1CCCCC1)C(=O)O)c1ccc(Cl)c(-c2ccc(Cl)cc2)c1
- IC90 (Bacteria [13]): 11 µg/mL (≈ 26.2 µM)
